Experimental data reported in US11389445B2, “Pentafluorosulfanyl-substituted amide derivatives, preparation methods thereof and medical uses thereof” (Beijing Innocare Pharma Tech Co., Ltd., priority 2018, dated 2022).

Target: indoleamine 2,3-dioxygenase (IDO) in Hela cells induced by IFN-γ (Homo sapiens (Human), UniProt P14902)
Experiment: IDO Cellular Activity Inhibition Assay (Ehrlich method)
Format: cell-based
Settings: 24 hours, OD490
Procedure: IDO Cellular Activity Inhibition Assay
The effect of the compounds of the present invention on the activity of indoleamine 2,3-dioxygenase (IDO) in Hela cells induced by IFN-γ was evaluated by the Ehrlich method.
The experimental principle is summarized as follows: IDO expression is low in Hela cells under no induction, but a certain concentration of IFN-γ can induces Hela cells to express IDO which catalyzes the conversion of tryptophan to N-formyl kynurenine, which in turn is hydrolyzed by trichloroacetic acid to give kynurenine. Kynurenine then reacts with the Ehrlich reagent to give a color enabling detection of the IDO activity. The absorbance at 490 nm (OD490) is directly proportional to the IDO activity.
The test compound was dissolved in DMSO (Sigma, Cat. No. D5879) and diluted to 5 mM, then serially diluted 3-fold with DMSO to a minimum concentration of 2.29 μM, and each concentration point was further diluted 50-fold with FBS-free DMEM medium (ThermoFisher, Cat. No. 11995073). If a compound's IC50 value was very low, the initial concentration of the compound was lowered.
Hela cells (ATCC, Cat. No. CCL-2) were cultured in DMEM complete medium containing 10% FBS (GBICO, Cat. No. 10099-141) and 100 U/mL streptomycin mixture (ThermoFisher, Cat. No. 15140122). When covering the culture vessel 80-90%, the cells were digested with 0.25% trypsin (containing EDTA) (ThermoFisher, Cat. No. 25200056) and planted in 96-well plates (Corning, Cat. No. 3599) by 20000 cells per well (80 μL of DMEM medium). The plates were then incubated in a 37° C., 5% CO2 incubator overnight (18-20 hours).
After overnight, 10 μL of DMEM-diluted compound and 10 μL of 500 ng/mL of IFN-γ were added to each well, and gently mixed and the 96-well plates were placed in a 37° C., 5% CO2 incubator for further culturing. After 24 hours, they were removed and centrifuged at room temperature under 2000×g for 5 min, and then the supernatants were transferred to reaction plates (Sigma, Cat. No. CLS3695). One-twentieth of trichloroacetic acid (Sigma, Cat. No. T9159) was added and incubated at 60° C. After 30 min, the reaction plates were centrifuged at room temperature under 2000×g for 5 min. The supernatants were transferred to clean reaction plates, an equal volume of the Ehrlich reagent was added, mixed, and incubated at room temperature. After 15 min, OD490 of each well was measured.
In this experiment, OD490 without IFN-γ but with DMEM medium replacement was referred as OD490100% inhibition. OD490 with IFN-γ and 0.2% DMSO was referred as OD4900% inhibition. The percentage of inhibition on the IDO1 activity in Hela cells by a compound was calculated using the following formula: Inhibition %=100−100*(OD490compound−OD490100% inhibition)/(OD4900% inhibition−OD490100% inhibition)
Where Y is the percentage of inhibition, Bottom is the bottom platform value of the S-curve, Top is the top platform value of the S-curve, X is the logarithm of the concentration of the test compound, and slope factor is the slope coefficient of the curve.

Sequence of indoleamine 2,3-dioxygenase (IDO) in Hela cells induced by IFN-γ (P14902 whole entry): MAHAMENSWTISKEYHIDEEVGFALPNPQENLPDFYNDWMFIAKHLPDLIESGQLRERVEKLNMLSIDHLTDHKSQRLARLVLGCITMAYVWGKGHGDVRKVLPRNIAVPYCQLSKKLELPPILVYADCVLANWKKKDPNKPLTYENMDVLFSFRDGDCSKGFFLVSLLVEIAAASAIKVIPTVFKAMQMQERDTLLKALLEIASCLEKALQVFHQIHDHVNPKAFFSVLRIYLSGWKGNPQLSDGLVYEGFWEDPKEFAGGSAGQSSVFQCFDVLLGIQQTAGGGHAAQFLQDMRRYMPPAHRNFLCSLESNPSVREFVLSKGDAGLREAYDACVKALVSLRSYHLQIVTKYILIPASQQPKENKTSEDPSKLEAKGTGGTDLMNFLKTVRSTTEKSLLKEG

Row | SMILES | IC50 [nM]
1 | C[C@@H](C(=O)Nc1ccc(S(F)(F)(F)(F)F)cc1)C1CCC(c2ccnc3ccnn23)CC1 (stereo partly drawn) [Compound 4, (R)-N-(4-(pentafluoro-λ^6-sulfanyl)phenyl)-2-(4-(pyrazolo[1,5-a]pyrimidin-7-yl)cyclohexyl)propanamide] | 50 to 200
2 | O=C(CC1(O)CCC(c2ccnc3ccc(F)cc23)CC1)Nc1ccc(S(F)(F)(F)(F)F)cc1 (stereo not drawn) [Compound 5, 2-(4-(6-fluoroquinolin-4-yl)-1-hydroxycyclohexyl)-N-(4-(pentafluoro-λ^6-sulfanyl)phenyl)acetamide] | < 50
3 | C[C@@H](C(=O)Nc1cccc(S(F)(F)(F)(F)F)c1)[C@H]1CC[C@@H](c2ccnc3ccc(F)cc32)CC1 [Compound 8, (R)-2-((1s,4S)-4-(6-fluoroquinolin-4-yl)cyclohexyl)-N-(3-(pentafluoro-λ^6-sulfanyl)phenyl)propanamide] | 200 to 1000
4 | C[C@@H](C(=O)Nc1ccc(S(F)(F)(F)(F)F)cc1)[C@H]1CC[C@H](c2ccnc3ccc(F)cc32)CC1 [Compound 2, (R)-2-((1r,4R)-4-(6-fluoroquinolin-4-yl)cyclohexyl)-N-(4-(pentafluoro-λ^6-sulfanyl)phenyl)propanamide] | 200 to 1000
5 | CC(NC(=O)c1ccc(S(F)(F)(F)(F)F)cc1)[C@H]1CC[C@@H](c2ccnc3ccc(F)cc32)CC1 (stereo partly drawn) [Compound 9, N-(1-((1s,4s)-4-(6-fluoroquinolin-4-yl)cyclohexyl)ethyl)-4-(pentafluoro-λ^6-sulfanyl)benzamide] | < 50
6 | C[C@@H](C(=O)Nc1ccc(S(F)(F)(F)(F)F)cc1)[C@H]1CC[C@@H](c2ccnc3ccc(F)cc32)CC1 [Compound 1, (R)-2-((1s,4S)-4-(6-fluoroquinolin-4-yl)cyclohexyl)-N-(4-(pentafluoro-λ^6-sulfanyl)phenyl)propanamide] | < 50
7 | Cc1cc([C@H]2CC[C@@H]([C@@H](C)C(=O)Nc3ccc(S(F)(F)(F)(F)F)cc3)CC2)ccn1 [Compound 3, (R)-2-((1s,4S)-4-(2-methylpyridin-4-yl)cyclohexyl)-N-(4-(pentafluoro-λ^6-sulfanyl)phenyl)propanamide] | < 50

Target: plasma IDO1 (Mus musculus (Mouse), UniProt P28776)
Sequence (P28776 whole entry): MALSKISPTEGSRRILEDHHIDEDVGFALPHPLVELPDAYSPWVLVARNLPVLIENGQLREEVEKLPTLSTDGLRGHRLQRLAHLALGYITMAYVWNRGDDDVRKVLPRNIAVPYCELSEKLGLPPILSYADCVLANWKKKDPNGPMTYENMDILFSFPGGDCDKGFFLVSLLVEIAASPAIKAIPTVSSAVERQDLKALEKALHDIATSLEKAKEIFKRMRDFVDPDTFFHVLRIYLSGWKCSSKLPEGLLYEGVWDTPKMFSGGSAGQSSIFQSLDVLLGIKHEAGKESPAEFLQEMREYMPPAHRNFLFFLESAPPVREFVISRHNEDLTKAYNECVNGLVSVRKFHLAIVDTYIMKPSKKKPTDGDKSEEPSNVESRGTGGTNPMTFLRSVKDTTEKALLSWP
Experiment: not given
Settings: single dose, nude mice; cited from earlier work

Row | SMILES | inhibition of the activity of plasma IDO1
8 | NS(=O)(=O)NCCNc1nonc1C(=NO)Nc1ccc(F)c(Br)c1 [INCB-024360] | effectively inhibit the activity of plasma IDO1 in nude mice at the same level as that in IDO-deficient mice

System: CT26 tumors
Experiment: not given
Settings: repeated doses; cited from earlier work

Row | SMILES | expansion of CT26 tumors
9 | NS(=O)(=O)NCCNc1nonc1C(=NO)Nc1ccc(F)c(Br)c1 [INCB-024360] | prevented the expansion of CT26 tumors
